Measured values from article PMC5437240, “Computational and structural evidence for neurotransmitter-mediated modulation of the oligomeric states of human insulin in storage granules” (The Journal of Biological Chemistry, 2017).

Biological target: T1, porcine hexameric Zn2+-insulin (Sus scrofa, UniProt P01315)
T1 construct: gene INS; mature two-chain disulfide-linked insulin, cut from (pre)proinsulin; Zn2+ hexamer (two Zn per hexamer), T6 start state
Test: UV-visible 4H3N chromophore titration, Hill fit
Assay type: binding
Conditions: read-out: Kd ± S.D.
Source text: UV-visible 4H3N chromophore titration, Hill fit on porcine hexameric Zn2+-insulin

T1 sequence (P01315 25-54): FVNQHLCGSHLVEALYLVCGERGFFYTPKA
T1 sequence (P01315 88-108): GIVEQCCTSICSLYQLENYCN

SMILES | Kd [µM]
Oc1ccccc1 [phenol] | 860 ± 130
NCCc1c[nH]c2ccc(O)cc12 [serotonin] | 3340 ± 520
